Source: ChEMBL document CHEMBL1138575, “Synthesis of alpha-amyrin derivatives and their in vivo antihyperglycemic activity” (2009)

Tests used:
Assay type in all cases: functional
Set-up in all cases: scale not given: the % may be the effect or the level left
[1] = tested on: Rattus norvegicus; assay: Antihyperglycemic activity against sucrose-challenged streptozotocin-induced fasted albino Sprague-Dawley rat assessed as reduction in blood glucose at 100 mg/kg, po administered 30 mins before sucrose challenge measured after 5 hrs post sucrose dose
[2] = tested on: Rattus norvegicus; assay: Antihyperglycemic activity against sucrose-challenged streptozotocin-induced fasted albino Sprague-Dawley rat assessed as reduction in blood glucose at 100 mg/kg, po administered 30 mins before sucrose challenge measured after 24 hrs post sucrose dose
[3] = tested on: Rattus norvegicus; assay: Antihyperglycemic activity against fasted sucrose-loaded albino rat model assessed as reduction in blood glucose at 100 mg/kg, po administered 30 mins before sucrose challenge measured after 24 hrs post sucrose dose
[4] = tested on: Rattus norvegicus; assay: Antihyperglycemic activity against fasted sucrose-loaded albino rat model assessed as reduction in blood glucose at 100 mg/kg, po administered 30 mins before sucrose challenge measured after 5 hrs post sucrose dose

Row | Compound | Activity [1] | Activity [2] | Activity [3] | Activity [4]
1 | Cc1ccc(C)c(C(=O)O[C@H]2CC[C@]3(C)[C@H]4CC=C5[C@@H]6[C@@H](C)[C@H](C)CC[C@]6(C)CC[C@@]5(C)[C@]4(C)CC[C@H]3C2(C)C)c1 | 24.9% | 20.2% | – | –
2 | C[C@H]1[C@H](C)CC[C@]2(C)CC[C@]3(C)C(=CC[C@@H]4[C@@]5(C)CC[C@H](OC(=O)CCC(=O)O[C@H]6CC[C@]7(C)[C@H]8CC=C9[C@@H]%10[C@@H](C)[C@H](C)CC[C@]%10(C)CC[C@@]9(C)[C@]8(C)CC[C@H]7C6(C)C)C(C)(C)[C@@H]5CC[C@]43C)[C@H]12 | 24.3% | 15.6% | – | –
3 | COc1ccc(CC(=O)O[C@H]2CC[C@]3(C)[C@H]4CC=C5[C@@H]6[C@@H](C)[C@H](C)CC[C@]6(C)CC[C@@]5(C)[C@]4(C)CC[C@H]3C2(C)C)cc1 | 17.5% | 15.6% | – | –
4 | C[C@H]1[C@H](C)CC[C@]2(C)CC[C@]3(C)C(=CC[C@@H]4[C@@]5(C)CC/C(=N\N(C(=S)Nc6ccccc6)c6ccc([N+](=O)[O-])cc6[N+](=O)[O-])C(C)(C)[C@@H]5CC[C@]43C)[C@H]12 | – | – | 7.35% | 1.2%
5 | C[C@H]1[C@H](C)CC[C@]2(C)CC[C@]3(C)C(=CC[C@@H]4[C@@]5(C)CC[C@H](O)C(C)(C)[C@@H]5CC[C@]43C)[C@H]12 | 13.9% | 8.12% | – | –
6 | CC(=O)O[C@H]1CC[C@]2(C)[C@H]3CC=C4[C@@H]5[C@@H](C)[C@H](C)CC[C@]5(C)CC[C@@]4(C)[C@]3(C)CC[C@H]2C1(C)C | 18.4% | 17% | – | –
7 | C/C=C(\C)C(=O)O[C@H]1CC[C@]2(C)[C@H]3CC=C4[C@@H]5[C@@H](C)[C@H](C)CC[C@]5(C)CC[C@@]4(C)[C@]3(C)CC[C@H]2C1(C)C | 12.7% | 22.6% | – | –
8 | C[C@H]1[C@H](C)CC[C@]2(C)CC[C@]3(C)C(=CC[C@@H]4[C@@]5(C)CC[C@H](OC(=O)c6ccccc6C(=O)O)C(C)(C)[C@@H]5CC[C@]43C)[C@H]12 | 11% | 16.5% | – | –
9 | C[C@H]1[C@H](C)CC[C@]2(C)CC[C@]3(C)C(=CC[C@@H]4[C@@]5(C)CC[C@H](OC(=O)c6ccc7ccccc7n6)C(C)(C)[C@@H]5CC[C@]43C)[C@H]12 | 19.6% | 17.8% | – | –
10 | C[C@H]1[C@H](C)CC[C@]2(C)CC[C@]3(C)C(=CC[C@@H]4[C@@]5(C)CC[C@H](OC(=O)c6cccnc6)C(C)(C)[C@@H]5CC[C@]43C)[C@H]12 | 18.2% | 27.6% | – | –
11 | C[C@H]1[C@H](C)CC[C@]2(C)CC[C@]3(C)C(=CC[C@@H]4[C@@]5(C)CC[C@H](OC(=O)CCCC(=O)c6ccccc6)C(C)(C)[C@@H]5CC[C@]43C)[C@H]12 | 24% | 23.5% | – | –
12 | C[C@H]1[C@H](C)CC[C@]2(C)CC[C@]3(C)C(=CC[C@@H]4[C@@]5(C)CC[C@H](OC(=O)c6ccc([N+](=O)[O-])cc6)C(C)(C)[C@@H]5CC[C@]43C)[C@H]12 | 13.8% | 27.6% | – | –
13 | C[C@H]1[C@H](C)CC[C@]2(C)CC[C@]3(C)C(=CC[C@@H]4[C@@]5(C)CC[C@H](OC(=O)CNC(=O)c6ccccc6)C(C)(C)[C@@H]5CC[C@]43C)[C@H]12 | 3.15% | 12.1% | – | –
14 | C[C@H]1[C@H](C)CC[C@]2(C)CC[C@]3(C)C(=CC[C@@H]4[C@@]5(C)CC[C@H](OC(=O)c6ccc(Cl)cc6)C(C)(C)[C@@H]5CC[C@]43C)[C@H]12 | 22.1% | 25.6% | – | –
15 | CN(C)C(=N)NC(=N)N [METFORMIN] | 23.5% | 26.5% | – | –
